From patent US9783547B2, “Water soluble 4-azapodophyllotoxin analogs” (CENTRE NATIONAL DE LA RECHERCHE SCIENTIFIQUE (CNRS), priority 2014, dated 2017)
pIC50: −log10 of the molar value.

How the values were obtained:
[1] = system: EAhy 926 endothelial cell line; assay: Endothelial cell morphology evaluation (rounding up); format: cell-based; settings: Homo sapiens, EA.hy 926; 2 h incubation; rounding up of more than 15% of cells; read-out: Cmarr EA.hy 926: lowest concentration at which cell rounding up was observed
From the text: To assess the effects of the compounds on the morphology of endothelial cells, the EAhy 926 endothelial cell line was used, which is derived from the fusion of human umbilical vein endothelial cells (HUVEC) with the permanent human cell line A549 (Edgell et al, Proc. Natl. Acad. Sci. U.S.A., 1983, vol 80, issue 12, 3734-3737). The EAhy 926 cell line is considered as a good representative of native HUVEC because it expresses most of the biochemical markers of parental HUVEC (Bouis et al., Angiogenesis., 2001, 4, 91-102). EAhy 926 cells were grown in DMEM containing 2 mM L-glutamine, 10% foetal bovine serum, 100 U/mL penicillin and 100 μg/mL streptomycin in a humidified atmosphere (37° C., 5% CO2). Exponentially growing EAhy 926 cells were plated onto 96 well plates at 5000 cells/100 μL/well. Twenty-four hours after plating, the medium was aspirated, and 100 μL of medium containing the test compound was added to the well containing the cells (in triplicate) and incubated for 2 h (37° C., 5% CO2). The highest concentration used was 100 μM followed by serial two-fold dilutions down to low nanomolar concentrations, if needed for the most morphologically active compounds. After the 2 h-incubation period, digital photographs were taken of representative centre areas of each well at a magnification of 100× and 200×. The results are presented as the minimum concentration that could elicit the rounding up of more than 15% of cells in a field in order to exclude normal mitotic cells which is less that 15% in control 1% DMSO treated cells. Triplicate concentrations on the same plate were routinely carried out. CA4 was included in the experiments as a positive internal standard.
Compounds of the invention were first tested on EAhy 926 endothelial cells, which are transformed HUVEC (human umbilical vein endothelial cells). These cells undergo a rounding up upon a short 2 hour exposure to vascular disrupting agents, e.g. combretastatin A4.

[2] = system: Eahy 926 endothelial cells (preformed cords on Matrigel); assay: Endothelial cell cords disruption assay; format: cell-based, human; settings: 2 hour exposure
Protocol: Eahy 926 endothelial cells were seeded onto a Matrigel layer in 6 well plates and allowed to form microvascular structures for 48 h (cords). […] In this experiment the control solvent used was 1% DMSO final concentration, because this solvent was required to solubilize combretastatin A4 used as a positive internal control. Digital photographs of the same plate region were taken before drug application and two hours after.
Another typical effect of antivascular agents is the disruption of preformed cords of endothelial cells grown on a Matrigel layer.

tubulin = assay: Tubulin polymerization inhibition assay (DAPI fluorescence); format: biochemical; settings: tubulin 1 mg/ml, DAPI; read-out: IPT (inhibition of tubulin polymerization) IC50
From the text: Fluorescence was then read at the excitation wavelength of 360 nm and emission of 450 nm.

colon 26 carcinoma = assay: Antitumor activity in colon 26 carcinoma bearing mice; settings: for Tumor Log10 cell kill: [(T − C)/3.32] × Td, Td 2 days
[3] = 31 mg/kg i.p. days 4, 5, 11, 12, 14, 15
[4] = 50 mg/kg i.p. days 4, 5, 11, 12, 14, 15

`COc1cc(Nc2c3c(nc4cc5c(cc24)OCO5)CCCC3=O)cc(OC)c1OC.Cl` [SGR307.HCl, 6,7-(Methylenedioxy)-9-(3,4,5-trimethoxyphenylamino)-3,4-dihydroacridin-1(2H)-one, hydrochloride] was tested, and the minimal effective concentration [1] was 0.06 µM, the “Lowest concentration at which destruction of endothelial cords is observed” value [2] was 0.5 µM and the pIC50 (tubulin) was 5.96. The “T − C (day), tumor growth delay” value (colon 26 carcinoma; [3]) was 7.7 days, the “Time for median tumor to reach 750 mg” value (colon 26 carcinoma; [3]) was 21.2 days and the “% T/C day 15” value (colon 26 carcinoma; [3]) was 15.4%. For the same molecule, the “Mean tumor vol (mm^3) day 15” value (colon 26 carcinoma; [3]) was 168 mm^3, the “Mean body wt change [g/mouse (day of nadir)]” value (shortened to “Mean body wt change”) (colon 26 carcinoma; 31 mg/kg i.p. days 4, 5, 11, 12, 14, 15, nadir d6) was −0.7 g/mouse and the “Tumor Log10 cell kill” value (colon 26 carcinoma; 31 mg/kg i.p.) was 4.6. The “T − C (day), tumor growth delay” value (colon 26 carcinoma; [4]) was 13.7 days, the “Time for median tumor to reach 750 mg” value (colon 26 carcinoma; [4]) was 27.2 days and the “% T/C day 15” value (colon 26 carcinoma; [4]) was 2.8%. The “Mean tumor vol (mm^3) day 15” value (colon 26 carcinoma; [4]) was 31 mm^3, the “Mean body wt change” value (colon 26 carcinoma; 50 mg/kg i.p. days 4, 5, 11, 12, 14, 15, nadir d7) was −2.6 g/mouse and the “Tumor Log10 cell kill” value (colon 26 carcinoma; 50 mg/kg i.p.) was 8.3. The Body weight loss (colon 26 carcinoma; 80 mg/kg i.p. days 4, 5, 11, 12, 14, 15) was greater than 20% and the “Mean body wt change” value (colon 26 carcinoma; 80.6 mg/kg i.p. days 4, 5, 11, 12, 14, 15, nadir d14) was −5.4 g/mouse.
